# In patent US9260504B2, “N- and C-terminal substituted antagonistic analogs of GH-RH” (University of Miami, priority 2008, dated 2016):
# Marks after values point to notes of the source that are not given here.
# Experiments:
# [1] = test system: PC-3 human hormone-independent prostate cancer; assay: PC-3 human prostate cancer xenografts in nude mice, Experiment 1; format: in vivo; settings: 10 μg/day s.c., daily for 35 days; means±S.E.
# Method: (§1) Male nude mice were implanted s.c. with 3 mm^3 pieces of PC-3 human hormone-independent prostate cancer tissue on both flanks. When tumors reached a volume of approx. 50 mm^3, the mice were divided into 4 experimental groups with 8 to 10 animals in each group and received single daily injections for 35 days as follows: 1. Control (vehicle solution); 2. JMR-132 (10 μg/day s.c.); 3. Peptide 1109 (10 μg/day s.c.); 4. Peptide 11111 (10 μg/day s.c.); Tumor volumes were measured once a week. The experiment was ended on day 35 by sacrificing the mice under Isoflurane anesthesia. Resulting tumors were cleaned, weighed, and snap-frozen until further analyses. Statistical analyses of the measurement results were done by two-tailed t-test, p<0.05 being considered significant. Data are presented as the means±S.E.
# [2] = test system: H-460 human non-small cell lung cancer; assay: H-460 human non-SCLC xenografts in nude mice, Experiment 1; format: in vivo; settings: 10 μg/day s.c., 28 days; means±S.E.
# Method: Male nude mice were implanted s.c. with 3 mm^3 pieces of H-460 human non-SCLC tumor tissue on both flanks. When tumors had grown to a mean volume of approximately 90 mm^3, the mice were randomly assigned into 4 experimental groups with 10 animals in each group and received single daily injections for 28 days as follows: 1. Control (vehicle solution); 2. JMR-132 (10 μg/day s.c.); 3. Peptide 1109 (10 μg/day s.c.); 4. Peptide 11111 (10 μg/day s.c.). Tumor volumes were measured once a week. The experiment was ended on day 28 by sacrificing the mice under Isoflurane anesthesia. Resulting tumors were cleaned, weighed, and snap-frozen until further analyses. Statistical analyses of the measurement results were done by two-tailed t-test, p<0.05 being considered significant. Data are presented as the means±S.E.
# [3] = test system: H-460 human non-small cell lung cancer; assay: H-460 human non-SCLC xenografts in nude mice, Experiment 2; format: in vivo; settings: 5 μg/day s.c.; for Tumor growth after 4 weeks (%): means±S.E.; for Inhibition (%): after 4 weeks
# Method: Male nude mice were implanted s.c. with 3 mm^3 pieces of H-460 human non-SCLC tumor tissue on both flanks. When tumors had grown to a mean volume of approximately 90 mm^3, the mice were randomly assigned into 12 experimental groups with 8 to 10 animals in each group and received single daily injections for 28 days as follows: 1. Control (vehicle solution); 2. JMR-132 (10 μg/day s.c.); 3. Peptide 11109 (5 μg/day s.c.); 4. Peptide 11113 (5 μg/day s.c.); 5. Peptide 11119 (5 μg/day s.c.); 6. Peptide 11209 (5 μg/day s.c.); 7. Peptide 11313 (5 μg/day s.c.); 8. Peptide 11408 (5 μg/day s.c.); 9. Peptide 11435 (5 μg/day s.c.); 10. Peptide 11459 (5 μg/day s.c.); 11. Peptide 11469 (5 μg/day s.c.); 12. Peptide 11491 (5 μg/day s.c.). Tumor volumes were measured once a week. The experiment was ended on day 28 by sacrificing the mice under Isoflurane anesthesia. Resulting tumors were cleaned, weighed, and snap-frozen until further analyses. Statistical analyses of the measurement results were done by two-tailed t-test, p<0.05 being considered significant. Data are presented as the means±S.E.
# [4] = test system: PC-3 human hormone-independent prostate cancer; assay: PC-3 human prostate cancer xenografts in nude mice, Experiment 2; format: in vivo; settings: for Inhibition (%): tumor growth after 2 weeks
# Method: as §1
# Experiment 2 was similar to Experiment 1. Experiment 2 was started when PC-3 tumors had grown to approximately 50 mm^3 in volume. At this time, the animals were divided into 5 experimental groups with 8 animals in each group, and received single daily injections for 14 days as follows: 1. Control (vehicle solution); 2. JMR-132 (10 μg/day s.c.); 3. Peptide 1109 (5 μg/day s.c.); 4. Peptide 11109 (5 μg/day s.c.); 5. Peptide 11109 (2 μg/day s.c.). Further details of Experiment 2 are the same as for Experiment 1
# pituitary receptors = biological target: T1, pituitary receptors (Homo sapiens, UniProt Q02643); settings: biological activity on the pituitary; cited from earlier work
# T1 construct: host or cells: pituitary
# T1 sequence (Q02643 23-423): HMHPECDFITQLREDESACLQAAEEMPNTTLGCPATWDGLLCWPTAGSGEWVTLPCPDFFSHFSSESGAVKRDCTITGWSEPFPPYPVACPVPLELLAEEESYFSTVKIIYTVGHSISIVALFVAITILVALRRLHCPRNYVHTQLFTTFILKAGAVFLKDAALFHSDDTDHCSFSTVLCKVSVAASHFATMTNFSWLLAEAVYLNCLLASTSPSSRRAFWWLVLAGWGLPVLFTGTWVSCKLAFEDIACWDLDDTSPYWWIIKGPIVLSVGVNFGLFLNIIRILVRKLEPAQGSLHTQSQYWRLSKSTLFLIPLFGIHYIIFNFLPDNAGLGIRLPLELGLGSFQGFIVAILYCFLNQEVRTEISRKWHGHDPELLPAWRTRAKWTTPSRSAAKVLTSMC
# [5] = test system: PC-3 human hormone-independent prostate cancer; assay: PC-3 human prostate cancer xenografts in nude mice, Experiment 3; format: in vivo; settings: 2 μg/day s.c., 28 days
# Method: Male nude mice were implanted s.c. with 3 mm^3 pieces of PC-3 human hormone-independent prostate cancer tissue on both flanks. When tumors reached a volume of approximately 50 mm^3, the mice were divided into 12 experimental groups with 8 to 10 animals in each group and received single daily injections for 28 days as follows: 1. Control (vehicle solution); 2. JMR-132 (10 μg/day s.c.); 3. Peptide 11113 (2 μg/day s.c.); 4. Peptide 11119 (2 μg/day s.c.); 5. Peptide 11209 (2 μg/day s.c.); 6. Peptide 11313 (2 μg/day s.c.); 7. Peptide 11408 (2 μg/day s.c.); 8. Peptide 11435 (2 μg/day s.c.); 9. Peptide 11457 (2 μg/day s.c.); 10. Peptide 11459 (2 μg/day s.c.); 11. Peptide 11469 (2 μg/day s.c.); 12. Peptide 11491 (2 μg/day s.c.).
# Tumor volumes were measured once a week. The experiment was ended on day 28 by sacrificing the mice under Isoflurane anesthesia. Resulting tumors were cleaned, weighed, and snap-frozen until further analyses. Statistical analyses of the measurement results were done by two-tailed t-test, p<0.05 being considered significant.
# [6] = test system: Panc-1 human pancreatic cancer; assay: Panc-1 human pancreatic cancer xenografts in nude mice; format: in vivo; settings: 10 μg/day s.c. for 36 days
# Method: Panc-1 cancers were transplanted s.c. into both flank areas of 60 female nude mice, and allowed to grow for 105 days before starting the treatment with GH-RH antagonists. The mice were randomly assigned into 3 experimental groups with 8 animals in each group and received single daily injections for 36 days as follows: 1. Control (vehicle solution); 2. JMR-132 (10 μg/day s.c.); 3. Peptide 11457 (10 μg/day s.c.). Tumor volumes were measured once a week. The experiment was ended on day 82 by sacrificing the mice under Isoflurane anesthesia. Resulting tumors were cleaned, weighed, and snap-frozen until further analyses. Statistical analyses of the measurement results were done by two-tailed t-test, p<0.05 being considered significant. Data are presented as the means±S.E.
# [7] = test system: Human ovarian cancer SKOV3 cells; assay: SKOV3 ovarian cancer xenografts in nude mice; format: in vivo; settings: 5 μg/day s.c.
# From the text: Human ovarian cancer SKOV3 cells growing exponentially were implanted info five female nude mice by subcutaneous (s.c.) injection of 10^7 cells in both flanks. Tumors That resulted after approximately 4 weeks in donor animals were then aseptically dissected and mechanically minced. Three mm^3 pieces of tumor tissue were transplanted subcutaneously into experimental animals with a trocar needle. When tumors reached an appropriate size (approximately 50 mm^3), mice were randomly divided into […]. The first was the control group, the second group was treated with daily s.c. injections of 5 μg P-11313, the third group was treated with daily s.c. injections of 5 μg P-11604, the fourth group was treated with daily s.c. injections of 5 μg P-11610. Tumor volume (length×width×height×0.5236) was measured every week and mean tumor volumes of each group were compared by Student's t-test. The study lasted 49 days. One week after end of treatment, mice were killed under anesthesia, tumors were snap frozen and stored at −70° C.
substance,measurement,setting,value
"[(Ac-Ada)^0-Tyr^1, D-Arg^2, Cpa^6, Ala^8, Har^9, Tyr(Me)^10, His^11, Abu^15, His^20, Nle^27, D-Arg^28, Har^29]hGH-RH(1-29)NH2 [Peptide 11111]",Tumor growth after 5 weeks (%),[1],1215 ± 243%
same,Tumor growth after 4 weeks (%),[2],2005 ± 541%
"[Dca^0-Tyr^1, D-Arg^2, Cpa^6, Ala^8, Har^9, Tyr(Me)^10, His^11, Abu^15, His^20, Nle^27, D-Arg^28, Har^29]hGH-RH(1-29)NH2 [Peptide 11109]",Effect on the growth of H-460 lung cancers in vivo,[3]; 28 days,had no effect
same,Tumor growth after 4 weeks (%),[3]; 28 days,7890 ± 4127%
same,Inhibition (%),[3],0.05%
same,Tumor growth after 2 weeks (%),"[4]; 2 μg/day s.c., 14 days",318%
same,Tumor growth after 2 weeks (%),"[4]; 5 μg/day s.c., 14 days",217%
same,Inhibition of PC-3 tumor growth compared with reference peptide JMR-132,"[4]; Peptide 1109 5 μg/day, Peptide 11109 5 and 2 μg/day, JMR-132 10 μg/day, 14 days",inhibited the growth of PC-3 tumors more potently than reference peptide JMR-132
same,Inhibition (%),[4]; 2 μg/day s.c.,55.55%
same,Inhibition (%),[4]; 5 μg/day s.c.,69.68%
Tyr-Ala-Asp-Ala-lle^5-Phe-Thr-Asn-Ser-Tyr^10-Arg-Lys-Val-Leu-Gly^15-Gln-Leu-Ser-Ala-Arg^20-Lys-Leu-Leu-Gln-Asp^25-Ile-Met-Ser-Arg^29-NH2 [GH-RH(1-29)],Potency relative to native GH-RH,pituitary receptors,≥ 50%
"[PhAc^0-Tyr^1, D-Arg^2, Cpa^6, Ala^8, Har^9, Tyr(Me)^10, His^11, Orn^12, Abu^15, His^20, Orn^21, Nle^27, D-Arg^28, Har^29-Ada^30]hGH-RH(1-29)NH2 [Peptide 11457]",Tumor growth inhibition after 4 weeks (%),[5],85.98%
same,Tumor weights,[6]; end of experiment day 82,76 ± 166 mg
same,Tumor growth from day 1 to day 82 (%),[6]; means±S.E.,740 ± 1220 %
same,Tumor volume on day 82 (mm^3),[6]; means±S.E.,262 ± 103* mm^3
same,Effect on the growth of Panc-1 human pancreatic cancers,[6]; observed for at least 82 days,powerfully inhibited the growth of Panc-1 human pancreatic cancers
"[(Ac-Ada)^0-Tyr^1, D-Arg^2, Cpa^6, Ala^8, Har^9, Tyr(Me)^10, His^11, Orn^12, Abu^15, His^20, Orn^21, Nle^27, D-Arg^28, Har^29]hGH-RH(1-29)NH2 [Peptide 11435]",Tumor growth after 4 weeks (%),[3]; 28 days,4170 ± 2064%
same,Inhibition (%),[3],47.17%
same,Tumor growth inhibition after 4 weeks (%),[5],75.11%
"[(Dca-Ada)^0-Tyr^1, D-Arg^2, (Phe(F)5)^6, Ala^8, Har^9, Tyr(Me)^10, His^11, Orn^12, Abu^15, His^20, Orn^21, Nle^27, D-Arg^28, Har^29]hGH-RH(1-29)NH2 [Peptide 11491]",Tumor growth after 4 weeks (%),[3]; 28 days,1926 ± 473%
same,Inhibition (%),[3],75.60%
same,Tumor growth inhibition after 4 weeks (%),[5],72.43%
"[(Ac-Ada-D-Phe)^0-Tyr^1, D-Arg^2, Cpa^6, Ala^8, Har^9, Tyr(Me)^10, His^11, Abu^15, His^20, Nle^27, D-Arg^28, Har^29]hGH-RH(1-29)NH2 [Peptide 11119]",Tumor growth after 4 weeks (%),[3]; 28 days,5254 ± 1524%
same,Inhibition (%),[3],33.44%
same,Tumor growth inhibition after 4 weeks (%),[5],32.03%
"[(Ac-Amc)^0-Tyr^1, D-Arg^2, Cpa^6, Ala^8, Har^9, Tyr(Me)^10, His^11, Orn^12, Abu^15, His^20, Nle^27, D-Arg^28, Har^29-Agm^30]hGH-RH(1-29) [Peptide 11313]",Tumor growth after 4 weeks (%),[3]; 28 days,3091 ± 1215%
same,Inhibition (%),[3],60.84%
same,TU growth (%),[7]; day 0 (baseline),100%
same,TU growth (%),[7]; day 7,147.84%
same,TU inhibition (%),[7]; day 7,31.04%
same,TU growth (%),[7]; day 14,140%
same,TU inhibition (%),[7]; day 14,50.04%
same,TU growth (%),[7]; day 21,196.6%
same,TU inhibition (%),[7]; day 21,63.83%
same,TU growth (%),[7]; day 28,249.65%
same,TU inhibition (%),[7]; day 28,70.35%
same,TU growth (%),[7]; day 35,201.5%
same,TU inhibition (%),[7]; day 35,77.43%
same,TU growth (%),[7]; day 42,274.05%
same,TU inhibition (%),[7]; day 42,77.83%
same,TU growth (%),[7]; day 49,328.63%
same,TU inhibition (%),[7]; day 49,74.16%
same,Tumor growth inhibition after 4 weeks (%),[5],78.20%
